The test system of series [1] is MCF-7 (breast cancer cell). Briefly: MTT antiproliferative assay (cell growth %, GI50), MCF-7. In kind it is cell-based. To be noted: for activity at 4000 µg/mL: 4 mg/ml; for activity at 4000 µg/mL / activity at 20000 µg/mL: 48 hours, MTT; for activity at 20000 µg/mL: 20 mg/ml. As for the experimental part:
(§1) Antiproliferative activities of the compounds of this invention were evaluated substantially according to the method as described in Tseng, C. […] The cells were treated with the test compounds, i.e., the compounds of this invention (in dimethylsulfoxide (DMSO)), or DMSO for 48 hours.
(§2) Before and after the treatment with the test compounds or DMSO, 3-(4,5-dimethylthiazol-2-yl)-2,5-diphenyltetrazolium bromide (MTT, 2 mg/mL, 100 μL) was added to each of the cultures, followed by cultivation for 2 hours. The resultant formazan was dissolved by the addition of DMSO. Absorbance at 570 nm (OD570) was measured using a microtiter plate reader (Dynex MRX-II).
(§3) Determination of GI50 was conducted thrice for each test compound. GI50 is expressed as mean±SD.
In general terms: Tetrazolium dyes change colour on reduction, which living cells bring about.

Series [2] has as its system NCI-H460 (non-small cell lung carcinoma cell). Briefly: MTT antiproliferative assay (cell growth %, GI50), NCI-H460. The conditions noted are these: for activity at 4000 µg/mL: 4 mg/ml; for activity at 4000 µg/mL / activity at 20000 µg/mL: 48 hours, MTT; for activity at 20000 µg/mL: 20 mg/ml. The format is cell-based. As for the experimental part:
as §1, §2, §3

The nature of series [3]: Determination of solubility in water. In kind it is physicochemical. To be noted: 25±0.1° C., stirred overnight, UV-VIS; for solubility: water, 25 °C, thermodynamic from solid. As for the experimental part:
Determination of solubility in water was conducted substantially according to the method as described in Vougogiannopoulou, K. et al. (2008), J. Med. Chem., 51:6421-6431. An excess amount of the respective test compound was added into water, followed by sonication for 5 minutes. The resultant mixture was stirred at ambient temperature (25±0.1° C.) overnight. Centrifugation at 4000 rpm and 25° C. was conducted for 5 minutes. Absorbance of the sample of the respective test compound was measured at 315-420 nm using a UV-VIS spectrophotometer (JASCO UV-Visible V570). For each test compound, a standard curve was generated by plotting concentrations of standard solutions and the corresponding absorbances. The absorbance of the sample of each test compound was then converted to solubility in water (μg/mL) using the corresponding standard curve.

Series [4] in a line: Single-dose pharmacokinetic analysis in CD-1 mice. The format is in vivo. To be noted: for Bioavailability: oral 20 mg/kg versus intravenous 2 mg/kg. As for the experimental part: CD-1 mice were divided into two groups. The first group of mice (n=9) were used to assess the singe-dose pharmacokinetics of the test compounds after intravenous administration, and the second group of mice (n=9) were utilized to assess the singe-dose pharmacokinetics of the test compounds after oral administration. All of the mice were fasted from 4 hours before the administration of the test compounds until 4 hours after the administration of the test compounds.
The assessment for singe-dose pharmacokinetics of the test compounds after intravenous administration was performed as follows. The first group of mice were further randomly divided into three subgroups including compound 13a group (n=3), compound 14a group (n=3), and compound 1 group (n=3). Compounds 13a, 14a, 1 (in polyethylene glycol 400/ethanol/water (30/5/65, v/v/v)) were respectively administered to the mice in compound 13a group, compound 14a group, and compound 1 group at a dose of 2 mg/kg via tail vein injection. Blood samples (0.25 mL) were collected from the mice by virtue of cardiac puncture right before the intravenous administration, and at 2 min, 5 min, 15 min, 30 min, 1 hr, 1.5 hr, 2 hr, 4 hr, 6 hr, 9 hr, 24 hr, and 27 hr after the intravenous administration.
The assessment for singe-dose pharmacokinetics of the test compounds after oral administration was conducted as follows. The second group of mice were further randomly divided into three subgroups including compound 13a group (n=3), compound 14a group (n=3), and compound 1 group (n=3). Compounds 13a, 14a, 1 (in 0.5% methylcellulose) were respectively administered to the mice in compound 13a group, compound 14a group, and compound 1 group at a dose of 20 mg/kg via tube feeding. Blood samples (0.25 mL) were collected from the mice by virtue of cardiac puncture right before the oral administration, and at 15 min, 30 min, 1 hr, 1.5 hr, 2 hr, 4 hr, 6 hr, 9 hr, 24 hr, and 27 hr after the oral administration.
Each of the blood samples was placed in a 0.5 mL Microtainer® tube containing anticoagulant EDTA-K2, followed by mixing evenly. Centrifugation at 7000 g and 4° C. was conducted for 5 minutes. Plasma was collected and was mixed uniformly with a proper amount of acetonitrile, followed by centrifugation. The resultant supernatant was acquired, and was injected into a reversed-phase Biosil ODS column so as to determine the concentration of the respective test compound in plasma (i.e., the plasma concentration of the respective test compound) using a LC-MS/MS system (Waters 2795 LC and Micromass Quattro Ultima). The singe-dose pharmacokinetic parameters of the respective test compound were calculated from the obtained concentration of the respective test compound in plasma (i.e., the obtained plasma concentration of the respective compound) at different time points using WinNonlin Standard Program (version 3.1, Pharsight Corp.)

For series [5] the following is noted: in vitro anticancer assay, earlier work of the applicants; cited from earlier work.
The subject of series [6] is tubulin. The conditions noted are these: Huang Y. T. et al. (2005); cited from earlier work.
For series [7], the system named is SF-268 (central nervous system carcinoma cell). Briefly: MTT antiproliferative assay (cell growth %, GI50), SF-268. In kind it is cell-based. On the procedure:
as §1, §2, §3

Series [8] concerns MRC-5 (human lung fibroblast cell). Briefly: GI50 determination on normal cell line MRC-5. The conditions noted are these: MRC5, normal cell line, mean±SD, read-out: GI50 MRC-5. In kind it is cell-based. On the procedure: as §1, §2, §3
Setting [9] is: intravenous administration, 2 mg/kg.
Where [10] appears, read: intravenous administration, 2 mg/kg, extrapolated plasma concentration at 0 hr.
Where [11] appears, read: intravenous administration, 2 mg/kg, from 0.5-1.5 hr (compd. 1) or 9-27 hr (13a, 14a).
Where [12] appears, read: oral administration, 20 mg/kg, from 2-6 hr (compd. 1), 2-24 hr (13a), 2-9 hr (14a).

Values after ≈ are worked out from the molar mass of the structure shown. Marks after values point to notes of the source that are not given here.

As a reminder, the solubility is how much of the substance goes into solution per volume. For orientation: AUC(0-inf) means the area under the concentration-time curve extrapolated to infinity. Read a low AUC(0-inf) as low exposure. Usually MRT stands for a mean duration of stay, worked out from the concentration-time curve. One may read the Vss as a proportionality between amount in the body and measured concentration, not a real space. A low value points to little distribution into tissue. For orientation: Vz means the apparent volume that relates the amount in the body to the concentration in plasma or blood. A lower Vz goes with little distribution into tissue. As a reminder, the Cmax is the highest concentration seen after dosing. What is called Tmax is the time at which the peak concentration occurs. Turning to `CC(=O)c1ccc(Nc2c3ccccc3nc3occc23)cc1` [Compound 1, 1-(4-(furo[2,3-b]quinolin-4-ylamino)phenyl)ethanone, reference compound], in series [1] (Homo sapiens, MCF7), the activity at 4000 µg/mL was 69% and the activity at 20000 µg/mL stood at 61%. Moreover, in series [2] (Homo sapiens, NCI-H460), the activity at 4000 µg/mL was found to be 33% and the activity at 20000 µg/mL is 30%. In addition, the solubility in series [3] was 6 µg/mL (≈ 19.8 µM). In series [4] (setting [9]), the “AUC(0-inf)” value stood at 211 ng·h/mL, the CL stood at 158 mL/min/kg, the mean residence time (MRT) was 0.1 h and the “Time after which compound was unable to be detected in plasma” value (from here on “Time after which compound was unable”) came out at 1.5 h. Also, in series [4] (setting [9]), the Vss turned out to be 1.2 L/kg and the Vz is 4.1 L/kg. In series [4] (setting [10]), the highest concentration (Cmax) is reported as 3064 ng/mL. Further, the t1/2 in series [4] (setting [11]) was 0.3^b hr. The same compound had a Bioavailability in series [4] of 2.1%. Also, in series [4] (oral administration, 20 mg/kg), the “AUC(0-inf)” value stood at 45 ng·h/mL, the Cmax was 21 ng/mL, the MRT worked out at 2.7 h and the “Time after which compound was unable” value was 6 h. The time to peak (Tmax) in series [4] (oral administration, 20 mg/kg) was 0.3 h. Also, the t1/2 in series [4] (setting [12]) is recorded as 2.0^c hr. Moreover, the “Antiproliferative potency compared with amsacrine (m-AMSA)” value in series [5] is on record as “higher than that of amsacrine”. Also, the Effect on tubulin result in series [6] is “binding to tubulin and inhibiting tubulin polymerization”.
For `C/C(=N\O)c1ccc(Nc2c3ccccc3nc3occc23)cc1` [Compound 2, (E)-1-(4-(furo[2,3-b]quinolin-4-ylamino)phenyl)ethanone oxime, reference compound], the activity at 4000 µg/mL in series [1] (Homo sapiens, MCF7) is 64%; in series [2] (Homo sapiens, NCI-H460), 27%. The activity at 20000 µg/mL came to 58% in series [1] (Homo sapiens, MCF7) and 21% in series [2] (Homo sapiens, NCI-H460). Moreover, the concentration in solution in series [3] (solubility) was 10 µg/mL (≈ 31.5 µM). Further, in series [5], the “Antiproliferative potency compared with amsacrine (m-AMSA)” value was “comparable to that of amsacrine”.
Consider `CO/N=C(\C)c1ccc(Nc2c3ccccc3nc3occc23)cc1` [Compound 3, (E)-1-(4-(furo[2,3-b]quinolin-4-ylamino)phenyl)ethanone O-methyloxime, reference compound], for which, in series [1] (Homo sapiens, MCF7), the activity at 4000 µg/mL is 63% and the activity at 20000 µg/mL is 37%. In series [2] (Homo sapiens, NCI-H460), the activity at 4000 µg/mL was found to be 51% and the activity at 20000 µg/mL amounted to 23%. The compound further had a solubility in series [3] of 8 µg/mL (≈ 24.1 µM). The “Antiproliferative potency compared with amsacrine (m-AMSA)” value in series [5] is “comparable to that of amsacrine”.
For the compound `C/C(=N\OCCN)c1ccc(Nc2c3ccccc3nc3occ(Cl)c23)cc1` [Compound 14a, (E)-1-(4-(3-Chlorofuro[2,3-b]quinolin-4-ylamino)phenyl)ethanone O-2-aminoethyl oxime], in series [1] (GI50 MRC-5 / GI50 MCF-7), the “SI MCF-7” value is listed as 1.52. In series [1] (Homo sapiens, MCF7), the activity at 4000 µg/mL worked out at 59% and the activity at 20000 µg/mL is -1%. In series [1] (Homo sapiens, MCF7, mean±SD, read-out: GI50 MCF-7), the GI50 is 31.01 ± 0.03 µM. The “SI NCI-H460” value in series [2] (GI50 MRC-5 / GI50 NCI-H460) was 66.25. For the same compound, in series [2] (Homo sapiens, NCI-H460), the activity at 4000 µg/mL was 32% and the activity at 20000 µg/mL was -1%. Also, the GI50 in series [2] (Homo sapiens, NCI-H460, mean±SD, read-out: GI50 NCI-H460) amounted to 0.71 ± 0.02 µM. For the same compound, in series [7] (GI50 MRC-5 / GI50 SF-268), the “SI SF-268” value came out at 5.15. The GI50 in series [7] (Homo sapiens, SF-268, mean±SD, read-out: GI50 SF-268) was 9.14 ± 0.72 µM. Further, in series [8], the GI50 was 47 ± 1.21 µM. This compound also had a Solubility in water in series [3] of 25 µg/mL (≈ 63.3 µM). In series [4] (setting [9]), the “AUC(0-inf)” value was determined as 409.8 ng·h/mL, the CL came out at 81.3 mL/min/kg, the mean residence time (MRT) turned out to be 6.1 h and the Vss worked out at 30.0 L/kg. The compound also yielded a Vz in series [4] (setting [9]) of 103.8 L/kg. Moreover, the Cmax in series [4] (setting [10]) is listed as 3601 ng/mL. For the same compound, the t1/2 in series [4] (setting [11]) is reported as 14.7^d hr. The Bioavailability in series [4] is recorded as 5.9%. Further, in series [4] (oral administration, 20 mg/kg), the “AUC(0-inf)” value stood at 242.6 ng·h/mL, the Cmax is recorded as 114.3 ng/mL, the mean residence time MRT was determined as 2.8 h and the “Time after which compound was unable” value stood at 9 h. For the same compound, the Tmax in series [4] (oral administration, 20 mg/kg) amounted to 1.0 h. Besides, the t1/2 in series [4] (setting [12]) is listed as 1.7^f hr.
